Experimental data published in ChEMBL document CHEMBL5550212, “Structural and Physicochemical Features of Oral PROTACs” (J Med Chem, 2024).
Values belong to the compound of their own block, whether it stands above or below them.

Key:
[1] = Chromatographic hydrophobicity index, logD of the compound; type: physicochemical
[2] = Clearance in C57BL/6 mouse at 1 mg/kg, po measured upto 24 hrs by LC-MS/MS analysis; type: ADME, organism-based; conditions: in vivo
[3] = Oral bioavailability in C57BL/6 mouse at 1 mg/kg measured upto 24 hrs by LC-MS/MS analysis; type: ADME, organism-based; conditions: in vivo
Estrogen receptor = biological target: T1, Estrogen receptor (Homo sapiens, UniProt P03372); assay: Induction of ERalpha degradation in human MCF7 cells; type: cell-based
T1 sequence (P03372 whole entry): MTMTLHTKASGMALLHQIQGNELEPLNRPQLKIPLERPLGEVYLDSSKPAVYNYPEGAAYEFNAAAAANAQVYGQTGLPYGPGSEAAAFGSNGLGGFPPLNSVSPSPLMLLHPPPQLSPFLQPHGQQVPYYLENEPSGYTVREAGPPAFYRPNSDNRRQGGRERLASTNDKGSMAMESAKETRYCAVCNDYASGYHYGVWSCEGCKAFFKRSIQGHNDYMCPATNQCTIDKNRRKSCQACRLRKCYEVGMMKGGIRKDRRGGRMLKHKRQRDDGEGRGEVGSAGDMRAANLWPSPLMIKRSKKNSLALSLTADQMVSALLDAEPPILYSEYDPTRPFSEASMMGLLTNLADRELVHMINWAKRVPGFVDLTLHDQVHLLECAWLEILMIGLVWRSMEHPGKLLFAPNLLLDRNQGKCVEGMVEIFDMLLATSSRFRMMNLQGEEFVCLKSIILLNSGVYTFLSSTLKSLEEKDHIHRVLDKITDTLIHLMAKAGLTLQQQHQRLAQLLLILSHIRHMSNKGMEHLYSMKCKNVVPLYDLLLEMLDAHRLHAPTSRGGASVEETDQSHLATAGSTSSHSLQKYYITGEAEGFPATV

[4] = biological target: T2, Estrogen receptor (Homo sapiens) (UniProt P03372); assay: Induction of ERalpha degradation in human MCF7 cells relative to control; type: cell-based
T2 sequence (whole entry): T1 sequence (P03372 whole entry)

Androgen receptor [5] = biological target: T3, Androgen receptor (Homo sapiens, UniProt P10275); assay: Induction of AR degradation in human LNCaP cells; type: cell-based
T3 sequence (P10275 whole entry): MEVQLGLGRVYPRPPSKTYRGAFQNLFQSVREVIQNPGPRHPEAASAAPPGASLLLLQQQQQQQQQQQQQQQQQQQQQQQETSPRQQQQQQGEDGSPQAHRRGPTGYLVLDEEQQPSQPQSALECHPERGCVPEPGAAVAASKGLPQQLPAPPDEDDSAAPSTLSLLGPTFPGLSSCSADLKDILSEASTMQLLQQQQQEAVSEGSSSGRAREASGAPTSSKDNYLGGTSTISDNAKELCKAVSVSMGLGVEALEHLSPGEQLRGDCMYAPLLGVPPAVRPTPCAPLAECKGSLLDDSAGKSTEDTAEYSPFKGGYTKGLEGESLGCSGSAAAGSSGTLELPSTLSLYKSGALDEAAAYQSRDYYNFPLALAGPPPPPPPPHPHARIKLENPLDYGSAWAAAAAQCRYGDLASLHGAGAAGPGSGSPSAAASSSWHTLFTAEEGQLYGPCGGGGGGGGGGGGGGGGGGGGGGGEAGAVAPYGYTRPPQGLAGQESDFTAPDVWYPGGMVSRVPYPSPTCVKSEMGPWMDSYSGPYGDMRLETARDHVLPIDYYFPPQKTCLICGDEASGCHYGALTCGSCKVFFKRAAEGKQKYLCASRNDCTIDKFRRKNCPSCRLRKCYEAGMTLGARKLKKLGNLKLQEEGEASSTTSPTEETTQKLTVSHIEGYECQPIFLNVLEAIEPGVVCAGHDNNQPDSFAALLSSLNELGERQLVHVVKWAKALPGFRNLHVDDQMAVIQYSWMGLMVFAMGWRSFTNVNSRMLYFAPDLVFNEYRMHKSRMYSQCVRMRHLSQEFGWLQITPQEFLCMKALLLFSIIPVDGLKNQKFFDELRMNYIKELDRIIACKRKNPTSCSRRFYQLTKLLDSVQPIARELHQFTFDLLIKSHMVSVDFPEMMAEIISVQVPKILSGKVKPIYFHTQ

[6] = biological target: T4, Androgen receptor (Homo sapiens) (UniProt P10275); assay: Induction of AR degradation in human LNCaP cells relative to control; type: cell-based
T4 sequence (whole entry): T3 sequence (P10275 whole entry)

[7] = Drug uptake in mouse plasma at 30 mg/kg, po; type: ADME, organism-based; conditions: in vivo
[8] = Drug uptake in mouse plasma at 60 mg/kg, po; type: ADME, organism-based; conditions: in vivo
[9] = biological target: T4, Androgen receptor (Homo sapiens); assay: Induction of AR degradation in human VCaP cells relative to control; type: cell-based
Androgen receptor [10] = biological target: T3, Androgen receptor; assay: Induction of AR degradation in human VCaP cells; type: cell-based
[11] = Lipophilicity, logD of the compound at pH 7.4 by shake-flask assay; type: physicochemical; conditions: buffer
[12] = Clearance in Han Wistar rat at 1 mg/kg, po measured upto 24 hrs by LC-MS/MS analysis; type: ADME, organism-based; conditions: in vivo
[13] = Clearance in Beagle dog at 1 mg/kg, po measured upto 24 hrs by LC-MS/MS analysis; type: ADME, organism-based, Canis lupus familiaris; conditions: in vivo
[14] = Volume of distribution at steady state in C57BL/6 mouse at 1 mg/kg, po measured upto 24 hrs by LC-MS/MS analysis; type: ADME, organism-based; conditions: in vivo
[15] = Volume of distribution at steady state in Han Wistar rat at 1 mg/kg, po measured upto 24 hrs by LC-MS/MS analysis; type: ADME, organism-based; conditions: in vivo
[16] = Volume of distribution at steady state in Beagle dog at 1 mg/kg, po measured upto 24 hrs by LC-MS/MS analysis; type: ADME, organism-based, Canis lupus familiaris; conditions: in vivo
[17] = Half-life in C57BL/6 mouse at 1 mg/kg, po measured upto 24 hrs by LC-MS/MS analysis; type: ADME, organism-based; conditions: in vivo
[18] = Half-life in Han Wistar rat at 1 mg/kg, po measured upto 24 hrs by LC-MS/MS analysis; type: ADME, organism-based; conditions: in vivo
[19] = Half-life in Beagle dog at 1 mg/kg, po measured upto 24 hrs by LC-MS/MS analysis; type: ADME, organism-based, Canis lupus familiaris; conditions: in vivo
[20] = Oral bioavailability in Han Wistar rat at 1 mg/kg measured upto 24 hrs by LC-MS/MS analysis; type: ADME, organism-based; conditions: in vivo
[21] = Oral bioavailability in Beagle dog at 1 mg/kg measured upto 24 hrs by LC-MS/MS analysis; type: ADME, organism-based, Canis lupus familiaris; conditions: in vivo
[22] = Dissociation constant, pKa of the compound; type: physicochemical

CHI [1]: 6.1
CL/F [2]: 5 mL/min/kg
bioavailability [3]: 15%
IC50 (Estrogen receptor): ≤ 1 nM
Emax [4]: > 90%
SMILES: C[C@@H]1Cc2c([nH]c3ccccc23)[C@@H](c2cnc(N3CCC(CCN4CCN(c5ccc6c(c5)CN(C5CCC(=O)NC5=O)C6=O)CC4)CC3)nc2)N1CC(C)(C)F (stereo not given in full)

CHI [1]: 5.9
CL/F [2]: 4.7 mL/min/kg
bioavailability [3]: 2%
DC50 (Androgen receptor [5]): 6 nM
Emax [6]: 96%
SMILES: Cc1ncsc1-c1ccc([C@H](C)NC(=O)[C@@H]2C[C@@H](O)CN2C(=O)[C@@H](NC(=O)COCCCCCNc2ccc(C(=O)N[C@H]3C(C)(C)[C@H](Oc4ccc(C#N)c(Cl)c4)C3(C)C)cc2)C(C)(C)C)cc1

Drug uptake [7]: Active
SMILES: Cc1ncsc1-c1ccc([C@H](CC[C@H](C)CCN2CCC(c3ccc4c(c3)n3c5cccc(Br)c5c(=O)nc3n4C3CCCC3)CC2)NC(=O)[C@@H]2C[C@@H](O)CN2C(=O)[C@@H](NC(=O)C2(F)CC2)C(C)(C)C)cc1

CHI [1]: 5.6
CL/F [2]: 19.3 mL/min/kg
bioavailability [3]: 12%
IC50 (Estrogen receptor): ≤ 1 nM
Emax [4]: > 90%
SMILES: C[C@@H]1Cc2c([nH]c3ccccc23)[C@@H](c2cnc(N3CCC(CN(C)C4CCN(c5ccc6c(c5)CN(C5CCC(=O)NC5=O)C6=O)CC4)CC3)nc2)N1CC(C)(C)F (stereo not given in full)

Drug uptake [8]: Active
SMILES: Cc1ncsc1-c1ccc(CNC(=O)[C@@H]2C[C@@H](O)CN2C(=O)[C@@H](NC(=O)CCCCCCCCCCNC(=O)O[C@H]2C[C@@H](C)C=C3C=C[C@H](C)[C@H](CC[C@@H]4C[C@@H](O)CC(=O)O4)[C@H]32)C(C)(C)C)cc1

CHI [1]: 4.7
CL/F [2]: 26.6 mL/min/kg
bioavailability [3]: < 1%
IC50 (Estrogen receptor): ≤ 1 nM
Emax [4]: > 90%
SMILES: C[C@@H]1Cc2c([nH]c3ccccc23)[C@@H](c2cnc(N3CCC(CNC4CCN(c5ccc6c(c5)CN(C5CCC(=O)NC5=O)C6=O)CC4)CC3)nc2)N1CC(C)(C)F (stereo not given in full)

CHI [1]: 4.6
CL/F [2]: 51.4 mL/min/kg
bioavailability [3]: < 1%
IC50 (Estrogen receptor): ≤ 1 nM
Emax [4]: > 90%
SMILES: C[C@@H]1Cc2c([nH]c3ccccc23)[C@@H](c2cnc(N3CCC(NC4CCN(c5ccc6c(c5)CN(C5CCC(=O)NC5=O)C6=O)CC4)CC3)nc2)N1CC(C)(C)F (stereo not given in full)

CHI [1]: 6.1
CL/F [2]: 6.1 mL/min/kg
bioavailability [3]: 45%
IC50 (Estrogen receptor): ≤ 1 nM
Emax [4]: > 90%
SMILES: C[C@@H]1Cc2c([nH]c3ccccc23)[C@@H](c2cnc(N3CCC(CN4CCN(c5ccc6c(c5)CN(C5CCC(=O)NC5=O)C6=O)CC4)CC3)nc2)N1CC(C)(C)F (stereo not given in full)

Emax [9]: < 50%
DC50 (Androgen receptor [10]): 1 nM
SMILES: COc1cc(O[C@H]2C(C)(C)[C@H](NC(=O)c3ccc(N4CCC(CN5CCN(c6ccc(C(=O)N[C@@H]7CCC(=O)NC7=O)c(F)c6)CC5)CC4)cc3)C2(C)C)ccc1C#N

CHI [1]: 7
CL/F [2]: 5.3 mL/min/kg
bioavailability [3]: 38%
SMILES: C[C@@H]1Cc2c(n(C)c3ccccc23)[C@@H](c2cnc(N3CCC(CCN4CCN(c5ccc6c(c5)CN(C5CCC(=O)NC5=O)C6=O)CC4)CC3)nc2)N1CC(C)(C)F (mixture of isomers)

logD [11]: 4.8
CHI [1]: 5.1
CL/F [2]: 3.9 mL/min/kg
CL/F [12]: 9 mL/min/kg
CL/F [13]: 4.7 mL/min/kg
Vdss [14]: 3.8 L/kg
Vdss [15]: 7.8 L/kg
Vdss [16]: 13 L/kg
half-life [17]: 13 h
half-life [18]: 9.3 h
half-life [19]: 32 h
bioavailability [3]: 65%
bioavailability [20]: 51%
bioavailability [21]: 14%
SMILES: N#Cc1ccc(O[C@H]2CC[C@H](NC(=O)c3ccc(N4CCC(CN5CCN(c6cc7c(cc6F)C(=O)N(C6CCC(=O)NC6=O)C7=O)CC5)CC4)nn3)CC2)cc1Cl (stereo not given in full) [BAVDEGALUTAMIDE]

logD [11]: 3.6
CHI [1]: 2.3
CL/F [2]: 17 mL/min/kg
CL/F [12]: 51 mL/min/kg
CL/F [13]: 16 mL/min/kg
Vdss [14]: 2.7 L/kg
Vdss [15]: 7.7 L/kg
Vdss [16]: 6.7 L/kg
bioavailability [3]: 24%
bioavailability [20]: 7%
bioavailability [21]: 51%
pKa [22]: 8.5
SMILES: Cn1c(=O)n(C2CCC(=O)NC2=O)c2cccc(C#CCOC3CCN(C[C@H]4CC[C@H](n5cc(NC(=O)c6cnn7ccc(N8C[C@H]9C[C@@H]8CO9)nc67)c(C(F)F)n5)CC4)CC3)c21 (stereo not given in full) [KT-474]

logD [11]: 4.7
CHI [1]: 5
CL/F [2]: 4.2 mL/min/kg
CL/F [12]: 16 mL/min/kg
CL/F [13]: 6.4 mL/min/kg
Vdss [14]: 2.3 L/kg
Vdss [15]: 9.1 L/kg
Vdss [16]: 15 L/kg
half-life [17]: 6.8 h
half-life [18]: 7.4 h
half-life [19]: 31 h
bioavailability [3]: 58%
bioavailability [20]: 38%
bioavailability [21]: 33%
Emax [9]: > 70%
DC50 (Androgen receptor [10]): < 1 nM
SMILES: COc1cc(O[C@H]2C(C)(C)[C@H](NC(=O)c3ccc(N4CCC(CN5CCN(c6ccc(C(=O)N[C@H]7CCC(=O)NC7=O)c(F)c6)CC5)CC4)cc3)C2(C)C)ccc1C#N [LUXDEGALUTAMIDE]

logD [11]: 4.6
CHI [1]: 5.3
CL/F [2]: 35 mL/min/kg
CL/F [12]: 28 mL/min/kg
CL/F [13]: 3 mL/min/kg
half-life [17]: 6.2 h
half-life [18]: 15 h
half-life [19]: 11 h
bioavailability [3]: 59%
bioavailability [20]: 24%
bioavailability [21]: 5%
SMILES: O=C1CC[C@H](N2Cc3cc(N4CCN(CC5CCN(c6ccc([C@@H]7c8ccc(O)cc8CC[C@@H]7c7ccccc7)cc6)CC5)CC4)ccc3C2=O)C(=O)N1 [VEPDEGESTRANT]
